Assay [1] in a line: Non-nucleoside inhibition of NS5B polymerase C316Y mutant in HCV genotype 1a by Taqman probe based RT-PCR analysis.
A short description of assay [2]: Non-nucleoside inhibition of NS5B polymerase in HCV genotype 1b by Taqman probe based RT-PCR analysis. (In general: In qPCR the cycle at which signal appears reflects the starting amount.)
Assay [3] in a line: Non-nucleoside inhibition of NS5B polymerase in HCV genotype 1a by Taqman probe based RT-PCR analysis.
A short description of assay [4]: Non-nucleoside inhibition of NS5B polymerase in HCV genotype 4a by Taqman probe based RT-PCR analysis.
The nature of assay [5]: Non-nucleoside inhibition of NS5B polymerase in HCV genotype 3a by Taqman probe based RT-PCR analysis.
Assay [6] in a line: Non-nucleoside inhibition of NS5B polymerase in HCV genotype 2b by Taqman probe based RT-PCR analysis.
Assay [7] in a line: Non-nucleoside inhibition of NS5B polymerase S365A mutant in HCV genotype 1a by Taqman probe based RT-PCR analysis.
Assay [8] is described as follows: Non-nucleoside inhibition of NS5B polymerase in HCV genotype 2a by Taqman probe based RT-PCR analysis.

Molecules are shown by their SMILES.

A word on the EC50: it is the midpoint of the concentration-response curve. `CNC(=O)c1c(-c2ccc(F)cc2)oc2cc(N(C)S(C)(=O)=O)c(-c3cc(OC)c4nnn(Cc5ccc(F)cc5)c(=O)c4c3)cc12` [US9364482, 71]: the EC50 in assay [1] came to 4.6 nM; in assay [2] it was 1.6 nM; in assay [3], 0.8 nM; in assay [4] it was 0.4 nM; in assay [5], 0.7 nM; in assay [6], 3.1 nM. Moreover, the EC50 in assay [7] came to 12 nM; in assay [8] it was 3.9 nM.

As for `CNC(=O)c1c(-c2ccc(F)cc2)oc2cc(N(C)S(C)(=O)=O)c(-c3cc4c(=O)n(Cc5ccc(F)cc5)nnc4cc3C)cc12` [US9364482, 72], the EC50 in assay [1] was determined as 6.2 nM; in assay [2] it was 4.4 nM; in assay [3], 2.3 nM; in assay [4] it was 1 nM; in assay [5] it was 1.1 nM; in assay [6] it was 4.7 nM. Further, the EC50 came to 16 nM in assay [7] and 6.6 nM in assay [8].

As for `CNC(=O)c1c(-c2ccc(F)cc2)oc2cc(N(C)S(C)(=O)=O)c(-c3cc4c(=O)n(Cc5ccc(F)cc5)nnc4cc3Cl)cc12` [US9364482, 73], the EC50 in assay [1] was 12 nM; in assay [2], 5.5 nM; in assay [3], 3 nM; in assay [4] it was 1 nM; in assay [5], 1.5 nM; in assay [6], 8.8 nM. Besides, the EC50 in assay [7] was determined as 42 nM; in assay [8], 15 nM.

`CNC(=O)c1c(-c2ccc(F)cc2)oc2cc(N(C)S(C)(=O)=O)c(-c3cc(C)c4nnn(Cc5ccc(F)cc5)c(=O)c4c3)cc12` [US9364482, 74]: the EC50 turned out to be 29 nM in assay [1]; 3.3 nM in assay [2]; 1.8 nM in assay [3]; 0.8 nM in assay [4]; 1.4 nM in assay [5]; 6.8 nM in assay [6]. Besides, the EC50 in assay [7] was determined as 120 nM; in assay [8] it was 6.1 nM.

For the origin of these results see BindingDB's records for doi:10.1016/j.bmcl.2020.127004 (Merck, 2020).
